Measurements reported in PubChem BioAssay AID1390 (Sanford-Burnham Center for Chemical Genomics, 2008).
Calls of active or inactive are those of the source.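 How the source made its calls: active means no band for the ATF-6 stress protein on the immunoblot of thapsigargin-stressed cell lysates; inactive means ATF-6 band still present, cleavage not blocked.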

Tested on: CSM14.1 cells, thapsigargin, ATF-6 Western blot
Test: blockers of ER stress ATF-6 induction – cell-based, thapsigargin, Western blot, mechanism study for ER stress cell death inhibitors, late-stage follow-up (AID 1390)

With CCOc1cc(C2Nc3ccccc3NC3=C2C(=O)CC(c2ccc(OC)cc2)C3)cc(Cl)c1O (stereo unspecified) the outcome was “inactive”.
For CCCOc1ccc(C2Nc3ccccc3NC3=C2C(=O)CC(c2ccc(OC)c(OC)c2)C3)cc1 (stereo unspecified), the outcome was “inactive”.
In the case of COc1ccc(C2CC(=O)C3=C(C2)Nc2ccccc2NC3c2cccc(Oc3ccccc3)c2)cc1OC (stereo unspecified), the outcome is reported as “inactive”.
With CC1(C)CC(=O)C2=C(C1)Nc1ccccc1NC2c1ccc(-c2ccccc2)cc1 (stereo unspecified) the outcome was “inactive”.
In the case of CCOc1cccc(C2Nc3ccccc3NC3=C2C(=O)CC(c2ccc(OC)cc2)C3)c1 (stereo unspecified), the outcome is reported as “inactive”.
COc1ccc(C2CC(=O)C3=C(C2)Nc2ccccc2NC3c2cc(C)ccc2C)cc1 (stereo unspecified) was tested, and the outcome was “inactive”.
For COc1ccc(C2CC(=O)C3=C(C2)Nc2ccccc2NC3c2cccc(Br)c2)cc1OC (stereo unspecified), the outcome was “inactive”.
In the case of CSc1ccc(C2Nc3ccccc3NC3=C2C(=O)CC(c2ccccc2)C3)cc1 (stereo unspecified), the outcome is reported as “inactive”.
In the case of COc1ccc(C2CC(=O)C3=C(C2)Nc2ccccc2NC3c2cccc(C(F)(F)F)c2)cc1OC (stereo unspecified), the outcome is reported as “inactive”.
O=C1CC(c2ccccc2)CC2=C1C(c1c(F)cccc1Cl)Nc1ccccc1N2 (stereo unspecified) was tested, and the outcome was “inactive”.
COc1ccc(C2CC(=O)C3=C(C2)Nc2ccccc2NC3c2ccccc2C(F)(F)F)cc1OC (stereo unspecified) was tested, and the outcome was “inactive”.
